Results published in patent US20070053941A1, “Vermin repellent” (priority 2003, published 2007).

Assays:
moles [1] = assay: Garden test: fenced-in 100 square meter zone treated with IMP versus untreated control area (Example 2); assay type: in vivo, Talpa europaea
Text: In a garden with an area of 700 square meters with notable mole activity, a zone with an area of 100 square meters was fenced in and treated with IMP under very favourable conditions.

moles [2] = assay: Field test: IMP vials buried in mole tunnels at a summer residence lawn (Example 1); assay type: in vivo, Talpa europaea
Description: Locality: A summer residence in Ängelholm in the south of Sweden.
Active substance: 100 μl 20% IMP in hexane in a sealed glass vial which was crushed at application in a mole tunnel.

SMILES: COc1nccnc1C(C)C [IMP, 2-isopropyl-3-methoxy-pyrazine]
- Behaviour of moles in the treated area (moles [1]; Example 2, overall conclusion): decidedly disturbed
- Mole hills observed in the treated area (moles [1]; after 4 days, 10 from the start, untreated control area 10 as compared with 6 from the start): 21 mole hills
- Repelling effect on moles (comment on the observations) (moles [2]; Example 1, overall conclusion): has a repelling effect on moles
- Observed effect: mole hills (moles [2]; January 2003, migration back after treatment in June): about 10 mole hills
- Observed effect: new mole hills in direction from the vials (moles [2]; June 15, after 2 vials buried June 11 and 3 vials June 14 (100 μl 20% IMP in hexane each), about 20 mole hills at beginning of June): 4 new mole hills in direction
- Observed effect: new mole hills (moles [2]; June 19, after 5 vials buried): 2 new mole hills
